Measurements reported in US20220169654A1, “New Organic Compounds” (Servier Pharmaceuticals LLC, priority 2020, published 2022).
pIC50: −log10 of the molar value.

target: T1, MAT2A homodimer (Homo sapiens, UniProt P31153); assay: MAT2A inhibition (biochemical, liberated phosphate, PiColorLock Gold); conditions: recombinant MAT2A homodimer; IC50 bin with Max Inh.; read-out: Enzyme Inhibition Bin
T1 construct: inferred from Ni sepharose purification with imidazole elution; made in house; host or cells: Sf9 insect cells, baculovirus (Bac to Bac, pFASTBAC1)
T1 sequence (P31153 whole entry): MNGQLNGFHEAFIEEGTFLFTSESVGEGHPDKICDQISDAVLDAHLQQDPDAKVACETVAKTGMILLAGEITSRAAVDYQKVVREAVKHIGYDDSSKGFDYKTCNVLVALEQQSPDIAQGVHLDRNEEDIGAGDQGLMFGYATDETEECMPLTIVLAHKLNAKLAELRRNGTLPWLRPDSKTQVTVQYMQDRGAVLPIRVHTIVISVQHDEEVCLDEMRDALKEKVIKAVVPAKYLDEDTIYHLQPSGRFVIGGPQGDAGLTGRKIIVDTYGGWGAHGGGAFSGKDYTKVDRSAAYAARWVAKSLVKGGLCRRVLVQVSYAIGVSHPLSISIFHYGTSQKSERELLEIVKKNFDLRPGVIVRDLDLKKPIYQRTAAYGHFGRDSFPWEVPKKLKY
Protocol: Mat2A protein was expressed by recombinant baculovirus in SF9 infected cells using the Bac to Bac system cloned into the pFASTBAC1 vector (Invitrogen, Carlsbad, Calif.). Recombinant MAT2A was isolated from the cell lysate of 150 g of infected cells using HP Ni sepharose column chromatography. Recombinant MAT2A homodimer was eluted with 250 and 500 mM imidazole, and fractions containing MAT2A were identified by sodium dodecyl sulfate polyacrylamide gel electrophoresis and pooled.
For determination of the inhibitory potency of compounds against the MAT2A homodimer, protein was diluted to 4 μg/mL in assay buffer (50 mM Tris, pH 8.0, 50 mM KCl, 15 mM MgCl2, 0.3 mM EDTA, 0.005% [w/v] bovine serum albumin [BSA]). Test compound was prepared in 100% dimethyl sulfoxide (DMSO) at 50× the desired final concentration. A 1 μL volume of compound dilution was added to 40 μL of enzyme dilution and the mixture was allowed to equilibrate for 60 minutes at 25° C. The enzymatic assay was initiated by the addition of 10 μL of substrate mix (500 μM ATP, pH 7.0, 400 μM L-methionine in 1× assay buffer), and the mixture was incubated for a further 60 minutes at 25° C. The reaction was halted and the liberated phosphate released by the enzyme in stoichiometric amounts by the production of S-adenosyl methionine (SAM) was measured using the PiColorLock Gold kit (Innova Biosciences, UK). Absolute product amounts were determined by comparison to a standard curve of potassium phosphate buffer, pH 8.0. The compounds were also tested in a secondary assay utilizing 1 μg/mL MAT2A and incubated for 5 hours at 25° C. before halting and processing as above.
Specific compounds disclosed herein were tested in the foregoing assay and they were determined to inhibit MAT2A with an IC50. See, Table 1 below.

| SMILES | pIC50 |
| --- | --- |
| Cn1cc2cc(-n3nc4ccn(CC5CC5)c4c(-c4cncc(C(F)(F)F)c4)c3=O)ccc2n1 [Example 125, 5-(cyclopropylmethyl)-2-(2-methyl-2H-indazol-5-yl)-4-(5-(trifluoromethyl)pyridin-3-yl)-2,5-dihydro-3H-pyrrolo[3,2-c]pyridazin-3-one] | < 5.00 |
| CNS(=O)(=O)c1cn(CC2CC2)c2c(-c3ccc(C4CC4)cc3)c(=O)n(-c3ccc4nn(C)cc4c3)nc12 [Example 179, 5-(cyclopropylmethyl)-4-(4-cyclopropylphenyl)-N-methyl-2-(2-methyl-2H-indazol-5-yl)-3-oxo-3,5-dihydro-2H-pyrrolo[3,2-c]pyridazine-7-sulfonamide] | < 5.00 |
| CNS(=O)(=O)c1cn(CC2CC2)c2c(-c3ccc(C4CC4)nc3)c(=O)n(-c3ccc4nn(C)cc4c3)nc12 [Example 181, 5-(cyclopropylmethyl)-4-(6-cyclopropylpyridin-3-yl)-N-methyl-2-(2-methyl-2H-indazol-5-yl)-3-oxo-3,5-dihydro-2H-pyrrolo[3,2-c]pyridazine-7-sulfonamide] | < 5.00 |
| CNS(=O)(=O)c1cn(CC2CC2)c2c(-c3ccc(C)nc3)c(=O)n(-c3ccc4nn(C)cc4c3)nc12 [Example 182, 5-(cyclopropylmethyl)-N-methyl-2-(2-methyl-2H-indazol-5-yl)-4-(6-methylpyridin-3-yl)-3-oxo-3,5-dihydro-2H-pyrrolo[3,2-c]pyridazine-7-sulfonamide] | < 5.00 |
| CNS(=O)(=O)c1cn(CC2CC2)c2c(-c3ccc(OC(F)F)cc3)c(=O)n(-c3ccc4nn(C)cc4c3)nc12 [Example 183, 5-(cyclopropylmethyl)-4-(4-(difluoromethoxy)phenyl)-N-methyl-2-(2-methyl-2H-indazol-5-yl)-3-oxo-3,5-dihydro-2H-pyrrolo[3,2-c]pyridazine-7-sulfonamide] | < 5.00 |
| CN1CC=C(n2nc3ccn(CC4CC4)c3c(-c3ccc(C4CC4)nc3)c2=O)CC1 [Example 232, 5-(cyclopropylmethyl)-4-(6-cyclopropylpyridin-3-yl)-2-(1-methyl-1,2,3,6-tetrahydropyridin-4-yl)-2,5-dihydro-3H-pyrrolo[3,2-c]pyridazin-3-one] | < 5.00 |
| Cn1cc2cc(-n3nc4c(S(C)(=O)=O)cn(CC5CC5)c4c(-c4ccc(C5CC5)nc4)c3=O)ccc2n1 [Example 261, 5-(cyclopropylmethyl)-4-(6-cyclopropylpyridin-3-yl)-2-(2-methyl-2H-indazol-5-yl)-7-(methylsulfonyl)-2,5-dihydro-3H-pyrrolo[3,2-c]pyridazin-3-one] | > 6.00 |
| Cn1cc2cc(-n3nc4c(S(C)(=O)=O)cn(CC5CC5)c4c(-c4ccc(C5CC5)cc4)c3=O)ccc2n1 [Example 262, 5-(cyclopropylmethyl)-4-(4-cyclopropylphenyl)-2-(2-methyl-2H-indazol-5-yl)-7-(methylsulfonyl)-2,5-dihydro-3H-pyrrolo[3,2-c]pyridazin-3-one] | > 6.00 |
| Cc1c(C#N)c2nn(-c3ccc4nn(C)cc4c3)c(=O)c(-c3ccc(C4CC4)nc3)c2n1CC1CC1 [Example 265, 5-(cyclopropylmethyl)-4-(6-cyclopropylpyridin-3-yl)-6-methyl-2-(2-methyl-2H-indazol-5-yl)-3-oxo-2H,3H,5H-pyrrolopyridazine-7-carbonitrile] | < 5.00 |
| Cc1ccc(-c2c(=O)n(-c3ccc4nn(C)cc4c3)nc3c(C#N)c(C)n(CC4CC4)c23)cn1 [Example 266, 5-(cyclopropylmethyl)-6-methyl-2-(2-methyl-2H-indazol-5-yl)-4-(6-methylpyridin-3-yl)-3-oxo-2H,3H,5H-pyrrolopyridazine-7-carbonitrile] | < 5.00 |

Further lines, results first:

| pIC50 | SMILES |
| --- | --- |
| > 6.00 | CC(C)Cn1cc(C#N)c2nn(-c3ccc4nn(C)cc4c3)c(=O)c(-c3ccc(C4CC4)nc3)c21 [Example 121, 4-(6-cyclopropylpyridin-3-yl)-5-isobutyl-2-(2-methyl-2H-indazol-5-yl)-3-oxo-3,5-dihydro-2H-pyrrolo[3,2-c]pyridazine-7-carbonitrile] |
| > 6.00 | Cn1cc2cc(-n3nc4ccn(CC5CC5)c4c(-c4cncc(Cl)c4)c3=O)ccc2n1 [Example 126, 4-(5-chloropyridin-3-yl)-5-(cyclopropylmethyl)-2-(2-methyl-2H-indazol-5-yl)-2,5-dihydro-3H-pyrrolo[3,2-c]pyridazin-3-one] |
| > 6.00 | CC(C)n1cc(C#N)c2nn(-c3ccc4nn(C)cc4c3)c(=O)c(-c3ccc(C4CC4)nc3)c21 [Example 146, 4-(6-cyclopropylpyridin-3-yl)-5-isopropyl-2-(2-methyl-2H-indazol-5-yl)-3-oxo-3,5-dihydro-2H-pyrrolo[3,2-c]pyridazine-7-carbonitrile] |
| > 6.00 | CN(C)C(=O)c1cn(CC2CC2)c2c(-c3ccc(C4CC4)nc3)c(=O)n(-c3ccc4nn(C)cc4c3)nc12 [Example 164, 5-(cyclopropylmethyl)-4-(6-cyclopropylpyridin-3-yl)-N,N-dimethyl-2-(2-methyl-2H-indazol-5-yl)-3-oxo-3,5-dihydro-2H-pyrrolo[3,2-c]pyridazine-7-carboxamide] |
| > 7.00 | Cn1cc2cc(-n3nc4c(c(CC5CC5)cn4C)c(-c4ccc(OC(F)F)cc4)c3=O)ccc2n1 [Example 272, 5-(cyclopropylmethyl)-4-(4-(difluoromethoxy)phenyl)-7-methyl-2-(2-methyl-2H-indazol-5-yl)-2,7-dihydro-3H-pyrrolo[2,3-c]pyridazin-3-one] |
